IC50 data for one molecule are collected here from article PMC9997933, “Anticancer derivative of the natural alkaloid, theobromine, inhibiting EGFR protein: Computer-aided drug discovery approach” (PLOS ONE, 2023).

The experiment concerns the target EGFR (Homo sapiens, UniProt P00533). The experiment can be described thus: in vitro EGFR inhibition, Human EGFR ELISA kit. In kind it is biochemical.

Chain of EGFR (P00533 25-1210): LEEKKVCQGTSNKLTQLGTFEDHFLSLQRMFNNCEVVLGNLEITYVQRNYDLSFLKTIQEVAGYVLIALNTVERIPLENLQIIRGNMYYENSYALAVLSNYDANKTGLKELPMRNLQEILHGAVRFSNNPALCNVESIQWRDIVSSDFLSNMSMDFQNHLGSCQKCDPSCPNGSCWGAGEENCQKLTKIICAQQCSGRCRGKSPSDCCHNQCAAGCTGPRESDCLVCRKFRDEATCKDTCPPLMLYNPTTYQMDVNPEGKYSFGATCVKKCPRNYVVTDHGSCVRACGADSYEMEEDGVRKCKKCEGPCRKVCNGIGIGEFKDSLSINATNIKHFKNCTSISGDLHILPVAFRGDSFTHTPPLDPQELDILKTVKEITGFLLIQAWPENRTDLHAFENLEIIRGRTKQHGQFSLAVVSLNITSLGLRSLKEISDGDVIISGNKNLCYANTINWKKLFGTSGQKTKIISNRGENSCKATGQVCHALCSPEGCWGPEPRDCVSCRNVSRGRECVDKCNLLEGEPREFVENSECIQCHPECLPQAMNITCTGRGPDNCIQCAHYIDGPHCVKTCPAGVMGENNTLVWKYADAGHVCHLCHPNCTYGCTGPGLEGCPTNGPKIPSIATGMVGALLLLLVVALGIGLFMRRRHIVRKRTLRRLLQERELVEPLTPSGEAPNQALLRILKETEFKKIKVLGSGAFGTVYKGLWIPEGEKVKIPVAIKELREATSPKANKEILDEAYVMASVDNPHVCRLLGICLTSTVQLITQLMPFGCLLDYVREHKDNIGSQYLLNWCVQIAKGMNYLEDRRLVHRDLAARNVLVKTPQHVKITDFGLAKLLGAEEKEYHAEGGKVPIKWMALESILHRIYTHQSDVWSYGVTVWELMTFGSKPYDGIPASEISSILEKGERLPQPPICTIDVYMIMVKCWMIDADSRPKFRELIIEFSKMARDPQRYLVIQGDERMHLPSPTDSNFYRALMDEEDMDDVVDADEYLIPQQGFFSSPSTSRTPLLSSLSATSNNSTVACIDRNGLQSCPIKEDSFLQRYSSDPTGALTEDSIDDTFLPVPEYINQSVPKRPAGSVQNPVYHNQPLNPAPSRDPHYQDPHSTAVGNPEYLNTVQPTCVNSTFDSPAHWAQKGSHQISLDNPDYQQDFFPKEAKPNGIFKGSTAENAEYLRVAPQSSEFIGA

`Cc1cccc(NC(=O)Cn2c(=O)c3c(ncn3C)n(C)c2=O)c1` [T-1-MTA] returned an IC50 of 22.9 nM. That is a double-digit nanomolar value.

As usually defined, the IC50 is the concentration needed to halve the response being measured. A low value points to higher potency.
